Values joined by “and” are separate entries in the source; they are usually repeats but may differ in a detail not shown here. Identical values can stand only once.
Experiments:
Assay type in all cases: physicochemical
[1] = Stability of monatin in lemon lime matrix under visible light (Example 2)
Description: (§1) High-potency sweetener monatin was evaluated for stability to sunlight exposure when formulated into a beverage packaged in PET packaging (bottle) with and without a UV barrier or in a dark-colored PET packaging. This study was designed to evaluate the stability of RR stereoisomer of monatin under normal visible light and under ultraviolet light in the Atlas sun-test chamber using normal PET bottles, PET packaging with a UV barrier and dark PET packaging. For this purpose monatin solution was made in a lemon lime carbonated beverage matrix without any flavor added.
(§2) The RR isomer of monatin was used for the present study after satisfactory HPLC and LC-MS data analyses confirmed that this sample greater than 95% pure. A lemon lime beverage matrix without flavor was used as the matrix base. The concentration of monatin in the matrix was 30 ppm.
(§3) Due to lack of any RR-monatin standard, its stereoisomer, SS-monatin was used for HPLC calibration curve preparation as it appears at the same retention time as RR-monatin.
(§4) Quantitative analysis of monatin via UV detection in LC-MS was done for all the samples. The methodology employed a 12% acetonitrile (solvent A) in 50 mM ammonium formate (pH 4.0, solvent B) for 5 min followed by a linear gradient to 34% acetonitrile over 5 min; Detection: UV @278 nm].
(§5) 1) regular PET bottles, 300 mL or 8 Oz (bottle type A). 2) PET bottles with a UV barrier, 600 mL or 16 Oz, fresh un-used bottle* (bottle type B). * It was shown that the UV barrier capacity decreased after one use in the commercially bought 20 Oz PET bottles with a UV barrier (See the UV scan data in FIG. 1). 3) dark-colored PET bottles (bottle type C). UV light source: Atlas Sun-test chamber. Under program 1 of sun-test chamber, 6 hr of exposure is equal to one day of sun-light exposure in Arizona or 400 Langley at 40° C. Control Experiment: UV irradiation by using only a lemon lime matrix (no monatin added) in regular PET bottles and running the sun-test chamber for four days equivalent exposure was carried out. The purpose of this experiment was to make sure no artifact arises from lemon lime matrix in the monatin absorption region. No new signals were identified. 13 bottles were used in the monatin-lemon-lime matrix experiments: 1 regular PET at zero time and 3 regular PET bottles; 2 PET bottles with a UV barrier bottles and 7 dark-colored PET bottles. Zero time sample protocol: 330 mL PET bottle was filled up to ⅓^rd full, flushed with nitrogen, covered with foil and then kept at 4° C. Sample aliquot protocol: 5 mL was taken out in a 20 mL opaque glass scintillation vial. Both vial and experimental bottle were flushed with nitrogen. The vial was covered with foil and kept at 4° C.
(§6) LC-MS analysis was carried out on all the samples in the same day as their maturation. A new monatin calibration curve was made every day with the SS-monatin sample.
For these experiments, visible light is the normal laboratory light which was left on all the time during the experiment.

[2] = Stability of monatin in lemon lime matrix under ultraviolet light, Atlas sun-test chamber (Example 2); settings: for monatin sample degraded: four days equivalent of ultraviolet light exposure (24 hours in UV chamber)
Description: as §1, §2, §3, §4, §5, §6
For these experiments samples were kept in the Atlas sun-test chamber where each 6 hr exposure was equivalent to one day of sun exposure in Arizona (400 Langley). […] In particular, it was noted that under UV light in regular PET, monatin degrades by 70% in just one day's exposure.

[3] = Monatin stability in lemon-lime beverage with EMIQ, visible light (Example 4); settings: for % Monatin remaining / Conc. of Monatin: with EMIQ
Description: The polyphenol enzymatically-modified isoquercitrin (EMIQ) was used to stabilize monatin (31 mg/L) in a lemon lime carbonated beverage formulation contained in either a regular (clear, colorless) PET bottle or a dark-colored PET bottle. The level of EMIQ in the samples was 7.5 PPM. A control formulation was used that contained no EMIQ. The samples were exposed to UV light or ambient indoor laboratory fluorescent lighting for up to 72 hours. UV light was administered in a UV chamber at 40° C. with approximately 400 Langley per 6 hours of exposure. The results listed below indicate that the monatin was very unstable in the control formulations with only 1.4% monatin remaining after 24 hours exposure to UV light. EMIQ provided protection from degradation of the monatin. When packaged in a dark-colored PET bottle approximately 89% monatin remained in the formulation after exposure to UV light for 24 hours. When exposed to ambient indoor laboratory lighting for 72 hours over 90% monatin remained in both clear and dark PET bottles containing the EMIQ polyphenol. All analyses were done by HPLC/MS.

[4] = 0 hours of exposure in UV chamber
[5] = 6 hours of exposure in UV chamber
[6] = 12 hours of exposure in UV chamber
[7] = 18 hours of exposure in UV chamber
[8] = 24 hours of exposure in UV chamber
[9] = dark-colored PET, Vis. exp. 0 hours
[10] = dark-colored PET, Vis. exp. 5 hours
[11] = dark-colored PET, Vis. exp. 7 hours
[12] = dark-colored PET, Vis. exp. 23 hours
[13] = dark-colored PET, Vis. exp. 28 hours
[14] = dark-colored PET, Vis. exp. 48 hours
[15] = regular PET, Vis. exp. 23 hours
[16] = regular PET, Vis. exp. 28 hours
[17] = regular PET, Vis. exp. 48 hours

## NC(CC(O)(Cc1c[nH]c2ccccc12)C(=O)O)C(=O)O (stereo not drawn) [Monatin, 2-amino-4-carboxy-4-hydroxy-5-(3-indolyl)-pentanoic acid]
[1]; lemon-lime matrix, any of the three types of bottles, visible light for up to 74 hours
  degrades upon exposure to visible light: less than 10%
[1]; visible light 0 hours
  Conc. in mg/L RR-Monatin in Lemon Lime matrix UV barrier PET Bottle (600 mL): 31.1 mg/L
  Conc. in mg/L RR-Monatin in Lemon Lime matrix in Normal PET Bottle (330 mL): 31.1 mg/L
  Conc. in mg/L RR-Monatin in Lemon Lime matrix in dark-colored PET Bottle (75 mL): 31.1 mg/L
[1]; visible light 5 hours
  Conc. in mg/L RR-Monatin in Lemon Lime matrix UV barrier PET Bottle (600 mL): 30.9 mg/L
  Conc. in mg/L RR-Monatin in Lemon Lime matrix in Normal PET Bottle (330 mL): 31.0 mg/L
  Conc. in mg/L RR-Monatin in Lemon Lime matrix in dark-colored PET Bottle (75 mL): 30.9 mg/L
[1]; visible light 8 hours
  Conc. in mg/L RR-Monatin in Lemon Lime matrix UV barrier PET Bottle (600 mL): 30.4 mg/L
  Conc. in mg/L RR-Monatin in Lemon Lime matrix in Normal PET Bottle (330 mL): 30.4 mg/L
  Conc. in mg/L RR-Monatin in Lemon Lime matrix in dark-colored PET Bottle (75 mL): 30.4 mg/L
[1]; visible light 26 hours
  Conc. in mg/L RR-Monatin in Lemon Lime matrix UV barrier PET Bottle (600 mL): 29.8 mg/L
  Conc. in mg/L RR-Monatin in Lemon Lime matrix in Normal PET Bottle (330 mL): 29.7 mg/L
  Conc. in mg/L RR-Monatin in Lemon Lime matrix in dark-colored PET Bottle (75 mL): 29.9 mg/L
[1]; visible light 31 hours
  Conc. in mg/L RR-Monatin in Lemon Lime matrix UV barrier PET Bottle (600 mL): 29.5 mg/L
  Conc. in mg/L RR-Monatin in Lemon Lime matrix in Normal PET Bottle (330 mL): 29.7 mg/L
  Conc. in mg/L RR-Monatin in Lemon Lime matrix in dark-colored PET Bottle (75 mL): 29.7 mg/L
[1]; visible light 49 hours
  Conc. in mg/L RR-Monatin in Lemon Lime matrix UV barrier PET Bottle (600 mL): 28.9 mg/L
  Conc. in mg/L RR-Monatin in Lemon Lime matrix in Normal PET Bottle (330 mL): 29.2 mg/L
  Conc. in mg/L RR-Monatin in Lemon Lime matrix in dark-colored PET Bottle (75 mL): 29.3 mg/L
[1]; visible light 56 hours
  Conc. in mg/L RR-Monatin in Lemon Lime matrix UV barrier PET Bottle (600 mL): 29.2 mg/L
  Conc. in mg/L RR-Monatin in Lemon Lime matrix in Normal PET Bottle (330 mL): 29.1 mg/L
  Conc. in mg/L RR-Monatin in Lemon Lime matrix in dark-colored PET Bottle (75 mL): 29.2 mg/L
[1]; visible light 74 hours
  Conc. in mg/L RR-Monatin in Lemon Lime matrix UV barrier PET Bottle (600 mL): 28.7 mg/L
  Conc. in mg/L RR-Monatin in Lemon Lime matrix in Normal PET Bottle (330 mL): 28.8 mg/L
  Conc. in mg/L RR-Monatin in Lemon Lime matrix in dark-colored PET Bottle (75 mL): 28.9 mg/L
[2]; [4]
  Conc. in mg/L RR-Monatin in Lemon Lime matrix in Normal PET Bottle (330 mL): 31.1 mg/L
  Conc. in mg/L RR-Monatin in Lemon Lime matrix in UV barrier PET Bottle (600 mL): 31.1 mg/L
  Conc. in mg/L RR-Monatin in Lemon Lime matrix in dark-colored PET Bottle (75 mL): 31.1 mg/L
[2]; [5]
  Conc. in mg/L RR-Monatin in Lemon Lime matrix in Normal PET Bottle (330 mL): 9.0 mg/L
  Conc. in mg/L RR-Monatin in Lemon Lime matrix in UV barrier PET Bottle (600 mL): 27.6 mg/L
  Conc. in mg/L RR-Monatin in Lemon Lime matrix in dark-colored PET Bottle (75 mL): 29.2 mg/L
[2]; [6]
  Conc. in mg/L RR-Monatin in Lemon Lime matrix in Normal PET Bottle (330 mL): 2.1 mg/L
  Conc. in mg/L RR-Monatin in Lemon Lime matrix in UV barrier PET Bottle (600 mL): 22.4 mg/L
  Conc. in mg/L RR-Monatin in Lemon Lime matrix in dark-colored PET Bottle (75 mL): 29.1 mg/L
[2]; [7]
  Conc. in mg/L RR-Monatin in Lemon Lime matrix in Normal PET Bottle (330 mL): 0.3 mg/L
  Conc. in mg/L RR-Monatin in Lemon Lime matrix in UV barrier PET Bottle (600 mL): 9.8 mg/L
  Conc. in mg/L RR-Monatin in Lemon Lime matrix in dark-colored PET Bottle (75 mL): 29.0 mg/L
[2]; [8]
  Conc. in mg/L RR-Monatin in Lemon Lime matrix in Normal PET Bottle (330 mL): 0.0 mg/L
  Conc. in mg/L RR-Monatin in Lemon Lime matrix in UV barrier PET Bottle (600 mL): 3.6 mg/L
  Conc. in mg/L RR-Monatin in Lemon Lime matrix in dark-colored PET Bottle (75 mL): 28.6 mg/L
[2]; Regular PET bottles and PET with UV barrier bottles
  degradation upon exposure to UV light: did not prevent degradation of monatin
[2]; UV barrier PET bottle
  monatin sample degraded: ~90%
[2]; UV light, regular PET, one day's exposure
  monatin degrades: 70%
[2]; dark-colored PET bottle
  monatin sample degraded: less than 10%
[2]; lemon-lime matrix
  degradation, UV light versus visible light: degrade faster upon UV light exposure than upon visible light exposure
[2]; monatin solution in dark-colored PET bottles
  degradation upon exposure to UV light: prevented most of the monatin from degrading
[2]; normal PET bottle
  monatin sample degraded: all of the monatin sample in the normal PET bottle had degraded
[3]; ambient indoor laboratory lighting for 72 hours, both clear and dark PET bottles containing the EMIQ polyphenol
  monatin remained: over 90%
[3]; [9]
  % Monatin remaining: 100%
  Conc. of Monatin: 30930 ng/mL
[3]; [10]
  % Monatin remaining: 97.5%
  Conc. of Monatin: 30160 ng/mL
[3]; [11]
  % Monatin remaining: 96.4% and 96.2%
  Conc. of Monatin: 29810 ng/mL and 29760 ng/mL
[3]; [12]
  % Monatin remaining: 93.3% and 93.1%
  Conc. of Monatin: 28870 ng/mL and 28790 ng/mL
[3]; [13]
  % Monatin remaining: 94.5%
  Conc. of Monatin: 29220 ng/mL
[3]; [14]
  % Monatin remaining: 92.1% and 92.4%
  Conc. of Monatin: 28490 ng/mL and 28590 ng/mL
[3]; regular PET, Vis. exp. 0 hours
  % Monatin remaining: 100%
  Conc. of Monatin: 30930 ng/mL
[3]; regular PET, Vis. exp. 5 hours
  % Monatin remaining: 99.0% and 98.6%
  Conc. of Monatin: 30620 ng/mL and 30510 ng/mL
[3]; regular PET, Vis. exp. 7 hours
  % Monatin remaining: 97.2% and 97.4%
  Conc. of Monatin: 30060 ng/mL and 30120 ng/mL
[3]; [15]
  % Monatin remaining: 94.1%
  Conc. of Monatin: 29100 ng/mL
[3]; [16]
  % Monatin remaining: 94.7% and 94.8%
  Conc. of Monatin: 29270 ng/mL and 29320 ng/mL
[3]; [17]
  % Monatin remaining: 92.7% and 92.5%
  Conc. of Monatin: 28680 ng/mL and 28610 ng/mL

Source: patent publication US20120282377A1, “Methods and Formulations for Inhibiting Degradation of Photosensitive Sweeteners and Sweetener Enhancers” (priority 2011, published 2012)
